Experimental data reported in US9532947B2, “Formulation for oral transmucosal administration of analgesic and/or antispasmodic molecules” (priority 2009, dated 2017).

Tests used:
[1] = oral/digestive route, cited from earlier work; for fraction of the orally administered dose that is truly bioavailable (residual part reaching the smooth muscular membranes): coated pill or ODT form, on average at best
[2] = Complete dissolution of active principle in approximately 40° ethanol (dissolution coefficient); type: physicochemical
Excerpt: The expression “stable and completely dissolved state” refers to a solution state rendering the active principle in the molecular and weakly ionized state in its solution medium, this solution state preventing any possibility of inopportune recrystallization. This stable and completely dissolved state may be monitored immediately on use of the formulation of the invention by evaluating the visual appearance of the solution obtained (measurement of the degree of limpidity), then at the level of the filtration residues (appearance or non-appearance of crystals), and finally in the medium-term and long-term during stability tracking tests at varying temperatures and relative humidities.
By way of illustration, the dissolution coefficient of phloroglucinol in ethanol makes it possible to obtain complete dissolution of said active principle at the rate of 20 milligrams (mg) of phloroglucinol in 0.75 mL of approximately 40° ethanol.
Similarly, the coefficient of dissolution of tiemonium methylsulfate in ethanol makes it possible to obtain complete dissolution of said active principle at the rate of 10 mg of tiemonium in 0.75 mL of approximately 40° ethanol. The coefficient of dissolution of nefopam in ethanol makes it possible to obtain complete dissolution of said active principle at the rate of 20 mg of nefopam in 1 mL of approximately 40° ethanol.

| SMILES | truly bioavailable dose of active principle resorbed by the digestive tract ([1]; all three main metabolites have no pharmacological activity) | complete dissolution of active principle at the rate of [2] | fraction of the orally administered dose that is truly bioavailable (residual part reaching the smooth muscular membranes) [1] |
| --- | --- | --- | --- |
| CN1CCOC(c2ccccc2)c2ccccc2C1 (stereo not drawn) [nefopam] | virtually nil | 20 mg in 1 mL |  |
| Oc1cc(O)cc(O)c1 [phloroglucinol] |  | 20 mg in 0.75 mL | 40% to 50 |
| COS(=O)(=O)[O-].C[N+]1(CCC(O)(c2ccccc2)c2cccs2)CCOCC1 (stereo not drawn) [tiemonium, tiemonium methylsulfate] |  | 10 mg in 0.75 mL | 10% to 15 |
